Here are results for seven compounds from patent US20040023878A1, “Gnrh analogues for treatment of urinary incontinence” (priority 2003, published 2004).

“And” between values parts separate entries of the source, which are not always exact repeats. Equal entries are not always repeated. “Also recorded” adds a separate entry of the source. Structures can show the parent of a compound that is named as a salt. A value given as a limit tells only on which side of the number the result lay.

Series [1] concerns bitches suffering from urinary incontinence after spaying. As to the kind of experiment: Fifteen bitches with urinary incontinence after spaying, given a slow-release s.c. GnRH analogue implant plus phenylpropanolamine for a limited period. The class given is in vivo, dog. Conditions: for Side effects: dash = none. Here is the method: Additionally, for a limited period the dogs were treated with phenylpropanolamine in a dosage of 1.5 mg/kg BW tid orally.
After discontinuation of the shortacting phenylpropanolamine 8 bitches remained continent. Their continence was therefore achieved solely by the treatment with the composition as described in the present invention. Seven out of fifteen dogs seemed to be much happier and in none of the dogs did the general condition deteriorate. […] The respective results are shown in more detail in table 1.

The test system of series [2] is urinary incontinence of the bitch. The note with it: 1.5 mg/kg BW p.o. given every 8 hours; incontinent spayed bitches; cited from earlier work.
The test system of series [3] is urge incontinence and hotflushes. Description: Perimenopausal person with urge incontinence and hot flushes. The class given is in vivo, human. The note with it: 3.75 mg; one perimenopausal person.
A further series deals with stress incontinence. As to the kind of experiment: Menopausal person with stress incontinence, 24 hour pad test. It is filed as in vivo, human. Conditions: single dose 3.75 mg, one person. On the procedure:
A second menopausal person, suffering from stress incontinence for at least 6 years, was treated with a single dose of 3.75 mg of leuprolide acetate. 24 hour pad tests conducted prior to treatment with the drug indicated they lost between 10 and 130 ml of urine on a daily basis due to their incontinence.

Series [4] relates to dogs suffering from urinary incontinence. Description: Double-blind, placebo-control study with open label phase in 16 client owned dogs suffering from urinary incontinence. It is filed as in vivo, dog. The note with it: ongoing study. Here is the method: In a second ongoing study, 16 client owned dogs suffering from urinary incontinence were enrolled in a double-blind, placebo-control study. In the initial phase of the study, dogs were randomly assigned to treatment with a long-acting GnRH analogue (leuprolide acetate) or placebo (dog owners and the investigators were blinded to treatment) along with a short course of therapy with phenylpropanolamine. 5 weeks after treatment with drug or placebo, dogs were evaluated and, if not fully continent, treated with a long-acting GnRH analogue (leuprolide acetate) in an open label phase of the study. To date only 1 of 10 dogs treated with placebo became continent vs. […] treated with drug during the blinded portion of the study. Overall, the results generated thus far indicate […] dogs treated with the long-acting GnRH analogue became continent and […] improved after discontinuation of the short acting phenylpropanolamine. Only 1 dog of 15 treated with the GnRH analogue was considered not to have improved following treatment with the drug.

In series [5] the test system is excessive growth of the undercoat (baby coat) due to spaying. As to the kind of experiment: Two cocker spaniel bitches with excessive growth of the undercoat due to spaying, slow-release s.c. implant. It is filed as in vivo, dog. The note with it: 5 mg slow release s.c. On the procedure:
Two cocker spaniel bitches belonging to the same owner were showing excessive growth of the undercoat due to spaying. […] Both dogs were first clinically examined and thereafter a GnRH analogue (Deslorelin) in a dosage of 5 mg, in slow release form, was subcutaneously implanted between the shoulder blades.

Where [6] appears, read: 6 mg slow release s.c. implant, no 'with PPA' mark, individual bitches.
The mark [7] stands for this setting: 12 mg slow release s.c. implant, no 'with PPA' mark, individual bitches.
Where [8] appears, read: 11,25 mg slow release s.c. implant, no 'with PPA' mark, individual bitches, listed as Leuprorelin acetate.
Setting [9] is: 11,25 mg slow release s.c. implant, with PPA, individual bitch.

For the compound Deslorelin acetate [Deslorelinacetate], the Side effects entry in series [1] (6 mg slow release s.c. implant, individual bitches) is given as “More playfull”; in series [1] (12 mg slow release s.c. implant, individual bitches), “less aggressive; also recorded: more activ”. Moreover, the “Duration of effect after treatment” value in series [1] (setting [6]) is >47 days and >340 days; in series [1] (setting [7]) it was 64 days and >64 days. Moreover, the Effect on incontinence was 100% in series [1] (setting [6]); 100% in series [1] (6 mg slow release s.c. implant, with PPA, individual bitch); 100% in series [1] (setting [7]); 80% and 100% (2×) in series [1] (12 mg slow release s.c. implant, with PPA, individual bitches).
`CN[C@@H](C)[C@H](O)c1ccccc1` [ephedrinhydrochloride]: in series [2], the Continence achieved is 74% and the Showed some improvement entry is recorded as “at least 24%”.
Take “Triptorelin acetate [Triptorelinacetate]”: the “Period of improvement of symptoms” value in series [3] is reported as “about 4 weeks”. For the same compound, the “Duration of effect after treatment” value in series [1] (3,75 mg slow release s.c. implant (dose too low), individual bitch) is 0.
Regarding Buserelin acetate [Buserelinacetate], the “Duration of effect after treatment” value in series [1] (6,3 mg slow release s.c. implant, individual bitches) is 44 days and 83 days. For the same compound, in series [1] (6,3 mg slow release s.c. implant, no 'with PPA' mark, individual bitches), the Effect on incontinence is listed as 100%.
Consider `CC(N)C(O)c1ccccc1` (centres unmarked) [phenylpropanolamine], for which, in series [2], the Continence achieved is given as 74% and the Showed some improvement entry was “at least 24%”.
`CCNC(=O)[C@@H]1CCCN1C(=O)[C@H](CCCNC(=N)N)NC(=O)[C@H](CC(C)C)NC(=O)[C@@H](CC(C)C)NC(=O)[C@H](Cc1ccc(O)cc1)NC(=O)[C@H](CO)NC(=O)[C@H](Cc1c[nH]c2ccccc12)NC(=O)[C@H](Cc1c[nH]cn1)NC(=O)[C@@H]1CCC(=O)N1` [Leuprorelinacetate, leuprolide acetate]: the “Daily urine loss, pad test” value in the series with stress incontinence (2 weeks after treatment, before treatment between 10 and 130 ml daily) came to 1 mL. Also, the “Patient's satisfaction with the effects of the therapy” value with stress incontinence is on record as “very satisfied”. In addition, in series [4] (of 15 dogs treated (blinded plus open label)), the “Dogs that became continent after discontinuation of phenylpropanolamine, overall” value turned out to be 6 dogs. Also, the “Dogs considered not to have improved following treatment” value in series [4] (of 15 treated) stood at 1 dog. Besides, the “Remaining dogs that improved after discontinuation of phenylpropanolamine” value in series [4] (of the remaining dogs of 15 treated) stood at 9 dogs. For the same compound, the “Dogs that became continent during the blinded portion of the study” value in series [4] (printed '3 to 8 dogs treated with drug', 5 weeks after treatment, with short course of phenylpropanolamine) is on record as 3 dogs. In addition, the “Duration of effect after treatment” value in series [1] (11,25 mg slow release s.c. implant, no 'with PPA' mark, individual bitches) was 0 days; in series [1] (setting [8]) it was greater than 14 days; in series [1] (setting [9]), greater than 64 days. The Effect on incontinence in series [1] (setting [8]) and in series [1] (setting [9]) was 100% throughout.
For the compound `CCNC(=O)[C@@H]1CCCN1C(=O)[C@H](CCCN=C(N)N)NC(=O)[C@H](CC(C)C)NC(=O)[C@@H](Cc1c[nH]c2ccccc12)NC(=O)[C@H](Cc1ccc(O)cc1)NC(=O)[C@H](CO)NC(=O)[C@H](Cc1c[nH]c2ccccc12)NC(=O)[C@H](Cc1cnc[nH]1)NC(=O)[C@@H]1CCC(=O)N1` [Deslorelin], the Coat quality result in series [5] (5 weeks after the injection, both dogs) is reported as “obvious amelioration of the coat quality”. The “Signs of baby coat” value in series [5] (21 weeks after injection) was “no signes of “baby coat” were apparent anymore”.
